Data set [1] is described as follows: Stability in solution at pH 7.4 (PBS / phosphate buffer), HPLC. It is filed as physicochemical. The note with it: for stability in solution at pH 7.4: PBS solution, pH 7.4, 48 h; for pH 7.4, percentage of unmodified compound / pH 7.4, t1/2: pH 7.4 solution; for pH 7.4, percentage of unmodified compound: after 48 h of incubation; for pH 7.4, t1/2: time before half of the drug is degraded. How it is done: (§1) General procedure for release experiments. A 10 mM stock-solution of compounds 8a, 8b, 10, 15, 17, and 18 was prepared in DMSO and diluted in the corresponding buffers to obtain a 1 mM solution. In the case of compound 16, the 10 mM stock-solution was diluted in the corresponding buffer and additionally diluted with DMSO to obtain a final 0.67 mM solution in buffer/H2O/DMSO. For analysis at pH 7.4 and 6, phosphate buffers of 0.1 M were used (KH2PO4/K2HPO4). For pH 5.5 and 4.5, acetate buffer of 0.1 M was used (CH3COONa/CH3COOH). All compounds were mixed with the buffers at 25 °C and further incubated at 37 °C. HPLC analyses were carried out following the method reported in SI every 1–3 h up to 6 h and every 6 h up to 48 h.

Data set [2] can be described thus: Release experiments (hydrolysis / payload release) in acidic acetate buffer, HPLC. The note with it: for peak intensity of the conjugate at pH 4.5: pH 4.5, HPLC. It is filed as physicochemical. Here is the method: as §1
A short description of another data set: Stability test in water. In kind it is physicochemical. The note with it: for H2O, percentage of unmodified compound: after 48 h of incubation; for half-life: time before half of the drug is degraded, read-out: H2O, t1/2. Here is the method: as §1
Data set [3] is described as follows: Stability in plasma experiments (pooled human plasma, UV/LC-MS). In kind it is in vitro ADME. The note with it: for Plasma, percentage of unmodified compound: 37 °C, after 24 h of incubation; for half-life at 100 µM: pooled human plasma, pH 7.4, 37 °C, time before half of the drug is degraded, read-out: Plasma, t1/2. How it is done: Stability in plasma experiments. Pooled human plasma, purchased from Merck (0.9 mL, […]); hepes buffer (1.0 mL, 25 mM, NaCl 140 mM, pH 7.4); and tested compound dissolved in DMSO (100 µL, 2.0 mM) were mixed in a test tube incubated at 37 °C under continuous mechanical agitation. At set time points (0.0, 0.25, 0.50, 1.0, 3.0, 5.0, 8.0, and 24.0 h), samples of 100 µL were taken, mixed with 400 µL of cold acetonitrile, and centrifuged at 5000 rpm for 15 min. The supernatant was collected and analysed by UV/LC-MS to monitor the amount of unmodified compound. LC analyses of plasma stability tests were performed using Agilent 1100 LC/MSD VL system (G1946C) (Agilent Technologies, Palo Alto, CA, USA) constituting a vacuum solvent degassing unit, a binary high-pressure gradient pump, an 1100 series UV detector, and an 1100 MSD model VL benchtop mass spectrometer. A MSD single-quadrupole instrument was equipped with the orthogonal spray API-ES (Agilent Technologies, Palo Alto, CA, USA). The pressure of the nebulizing gas and the flow of the drying gas (nitrogen used for both) were set at 40 psi and 9 L/min, respectively. The capillary voltage, fragmentation voltage, and vaporization temperature were 3000 V, 10 V, and 350 °C, respectively. MSD was used in the positive and negative ion mode. Spectra were acquired over the scan range m/z 100–2000 using a step size of 0.1. Chromatographic analyses were performed using a Phenomenex Kinetex EVO C18-100Å (150 × 4.6 mm, 5 μm particle size) at room temperature, at a flow rate of 0.6 mL/min, injection volume of 10 μL, operating with a gradient elution of A: water (H2O) and B: acetonitrile (ACN). Both solvents were acidified with 0.1% v/v of formic acid. UV detection was monitored at 254 nm. The analysis started with 0% of B, then B was increased to 80% (from t = 0 to t = 20 min), then kept at 80% (from t = 20 to t = 25 min), and finally returned to 0% of eluent B in 5.0 min.

Turning to `C#CCOc1cc(COC(=O)N(C[C@H]2CN(c3ccc(N4CCOCC4)c(F)c3)C(=O)O2)C(C)=O)ccc1OCOC` [Compound 8a, 4-(Methoxymethoxy)-3-(prop-2-yn-1-yloxy)benzyl (R)-acetyl((3-(3-fluoro-4-morpholino-phenyl)-2-oxooxazolidin-5-yl)methyl)carbamate], in data set [1], the “stability in solution at pH 7.4” value is reported as “stable”. Further, the “peak intensity of the conjugate at pH 4.5” value in data set [2] is “decreased”.
The matching figures for `C#CCOc1cc(COC(=O)N(C[C@@H]2CN(c3ccc(N4CCOCC4)c(F)c3)C(=O)O2)C(C)=O)ccc1OCOCCOC` [Compound 8b, {[3-(3-Fluoro-4-morpholinophenyl)-2-oxo-1,3-oxazolidin-5-yl]methyl}acetylamino-{4-[(2-methoxyethoxy)methoxy]-3-(2-propynyloxy)-phenyl}methylformylate]: “stable” and “decreased”.
As to `C#CCOc1cc(COC(=O)N(C)C(=O)c2ccc(N3C(=S)N(c4ccc(C#N)c(C(F)(F)F)c4)C(=O)C3(C)C)cc2F)ccc1OCOC` [Compound 10, 4-(Methoxymethoxy)-3-(prop-2-yn-1-yloxy)benzyl (4-(3-(4-cyano-3-(trifluoromethyl)-phenyl)-5,5-dimethyl-4-oxo-2-thioxoimidazolidin-1-yl)-2-fluorobenzoyl)(methyl)-carbamate], the “stability in solution at pH 7.4” value in data set [1] is “stable”. Moreover, the “free Enzalutamide 9 detected at pH 4.5” value in data set [2] (pH 4.5, 48 h, 37 °C) is recorded as 40%. In data set [2], the “peak intensity of the conjugate at pH 4.5” value is listed as “decreased”. For the same compound, in data set [2] (pH 5.5, after 48 h at 37 °C), the “amide 9 released at pH 5.5” value is “only a small amount”.
As for `C#CCOc1cc(COC(=O)N(C[C@H]2CN(c3ccc(N4CCOCC4)c(F)c3)C(=O)O2)C(C)=O)cc2c1OC(OCC)O2` (stereo partly drawn) [Compound 15, (2-Ethoxy-7-(prop-2-yn-1-yloxy)benzo[d][1,3]dioxol-5-yl)methyl acetyl(((R)-3-(3-fluoro-4-morpholinophenyl)-2-oxooxazolidin-5-yl)methyl)carbamate], in the data set “Stability test in water”, the “H2O, percentage of unmodified compound” value came to 99% and the half-life is above 48 h. In data set [3], the “Plasma, percentage of unmodified compound” value (“Plasma, percentage” below) is on record as 95% and the half-life at 100 µM was above 24 h. Further, in data set [1], the “pH 7.4, percentage of unmodified compound” value (“pH 7.4, percentage” below) was 94% and the “pH 7.4, t1/2” value is above 48 h.
On to `C#CCOc1cc(COC(=O)N(C)C(=O)c2ccc(N3C(=S)N(c4ccc(C#N)c(C(F)(F)F)c4)C(=O)C3(C)C)cc2F)cc2c1OC(OCC)O2` (stereo not shown) [Compound 16, (2-Ethoxy-7-(prop-2-yn-1-yloxy)benzo[d][1,3]dioxol-5-yl)methyl (4-(3-(4-cyano-3-(trifluoromethyl)phenyl)-5,5-dimethyl-4-oxo-2-thioxoimidazolidin-1-yl)-2-fluorobenzoyl)(methyl)carbamate], for which, in “Stability test in water”, the “H2O, percentage of unmodified compound” value came out at 99% and the half-life is above 48 h. For the same compound, in data set [3], the “Plasma, percentage” value is given as 89% and the half-life at 100 µM was above 24 h. For the same compound, in data set [1], the “pH 7.4, percentage” value worked out at 95% and the “pH 7.4, t1/2” value is above 48 h.
For `C#CCOc1cc(COC(=O)NS(=O)(=O)c2ccc(C)cc2)cc2c1OC(OCC)O2` (stereo not shown) [Compound 18, (2-Ethoxy-7-(prop-2-yn-1-yloxy)benzo[d][1,3]dioxol-5-yl)methyl tosylcarbamate], in the data set “Stability test in water”, the “H2O, percentage of unmodified compound” value was 99% and the half-life is above 48 h. Also, in data set [3], the “Plasma, percentage” value came to 84% and the half-life at 100 µM was above 24 h. Moreover, in data set [1], the “pH 7.4, percentage” value was determined as 92% and the “pH 7.4, t1/2” value was above 48 h. The “drug released at pH 5.5 after 48 h” value in data set [2] (pH 5.5, after 48 h) was “no more than 80%”. In addition, the “rate of release at pH 5.5 (qualitative)” value in data set [2] (pH 5.5, compared with the other derivatives) is listed as “faster”.

(Values after publication PMC10060004, “A Self-Immolative Linker for the pH-Responsive Release of Amides” (Molecules, 2023).)
